From paper PMC8703450, “New Heterocyclic Combretastatin A-4 Analogs: Synthesis and Biological Activity of Styryl-2(3H)-benzothiazolones” (Pharmaceuticals, 2021)
Like-named read-outs stand apart in the source and are kept apart here.

Experiments:
Assay type in all cases: cell-based, human
MCF-7 cells = test: MTT cytotoxicity assay, MCF-7
Procedure: (§1) All tested compounds were dissolved in DMSO at 25 mM initial concentration and diluted with medium to obtain the working concentrations (0.01 nM–250 µM). Serial drug dilutions were prepared in medium immediately before each experiment. The DMSO working concentration in the medium was […]. For the MTT assay, cells were seeded into 96-well microtitre plates at a density of 1 × 10^4 in 100 µL complete medium per well. They were further incubated for 24 h, followed by treatment with CA-4 analogs up to 72 h. Cell viability was determined using the MTT assay. Ten µL of MTT solution (5 mg/mL) was added to each well and further incubated for 3 h at 37 °C. To dissolve the formazan product, 100 µL/well of 99.5% isopropanol was added. Cell viability was determined by measuring absorbance at 550/630 nm using a DTX880 plate reader (Beckman Coulter, USA). Results, expressed as concentrations that inhibit 20% (IC20), 50% (IC50), and 80% (IC80) of cell growth, were calculated using GraphPad Prism 8.0.1.
(§2) Table S 3.1. Description of eukaryotic cell lines used for MTT assay. […]
(§3) Kindly provided 3.1 g/L Glucose,
(§4) mammary by Prof. Iana DMEM/F12 with
(§5) Breast MDA- gland/breast; derived Tsoneva 10% FBS, 100 U/mL
(§6) MB-231 h from metastatic site: (IBPhBME – penicillin, 100 U/mL
(§7) pleural effusion; BAS) streptomycin (Lonza). […]

caspase 3, 8 and 9 = test: Western blot analysis of caspase activation; settings: EA.hy926, 24 h
Procedure: A total of 7 × 10^5 cells was seeded in 100-mm dishes. On the next day, cells were treated with the corresponding concentrations of CA-4 and 26Z. After 24 h, treated cells were collected and lysed with lysis buffer (50 mM HEPES, pH 7.7, 250 mM KCl, 10% glycerol, 0.1% Nonidet P-40) containing protease inhibitors (0.4 mM sodium vanadate, 0.5 mM PMSF, 1 mM DTT, […]) by incubation on ice for 30 min and overnight at −20 °C [80]. The concentration of obtained total cell protein lysates was determined by the method of Bradford. Samples were separated on 12% polyacrylamide gels and transferred to nitrocellulose or PVDF membranes. Immunoblotting was performed by blocking in 3.5% non-fat dried milk in PBS, with subsequent incubation for 1 h with primary antibodies for caspase 3 (sc-56053, Santa Cruz Biotechnology), caspase 8 (sc-81656, Santa Cruz Biotechnology), caspase 9 (sc-8355, Santa Cruz Biotechnology), and PARP-1 (sc-8007, Santa Cruz Biotechnology), diluted in PBS containing 0.05% Tween-20. This was followed by incubation with a peroxidase-conjugated secondary antibody m-Igk BP-HRP (sc-516102, Santa Cruz Biotechnology) or a donkey anti-rabbit IgG-HRP (sc-2313, Santa Cruz Biotechnology) for 1 h, and detection of the chemiluminescent signal was accomplished with ECL Select^TM Western Blotting Detection Reagent (Amersham) on X-ray film. β–actin was used as a loading control and mouse monoclonal antibody was used following the manufacturer’s instruction (sc-47778, Santa Cruz Biotechnology).

α,β-tubulin = test: In vitro quantification of polymeric vs. soluble tubulin fractions in EA.hy926 cells; settings: for soluble vs. polymerized tubulin ratio: EA.hy926, 1 µM, 6 h, DMSO control 2.33 ± 0.14
Procedure: To assess the early effects on the microtubule cytoskeleton in vitro, EA.hy926 cells were cultured for 24 h in 6-cm dishes (3 × 10^5 cells). They were exposed to […] (control), 1 μM CA-4, paclitaxel, or increasing concentrations of 26Z (50, 100, 250, 2500, 10,000 nM) for 6 h. Cells were washed with PBS and lysed directly in the dishes with hypotonic lysis buffer (20 mM Tris-HCl, 1 mM MgCl2, 2 mM EGTA, 0.5% Triton X-100, glycerol 10%, pH 6.8), supplemented with protease inhibitors (2 μg/mL leupeptin, 2 μg/mL pepstatin, 0.4 mM Na vanadate, 0.5 mM PMSF, 1 mM DTT), for 3 min at 30 °C. The soluble fraction was immediately collected, mixed with 5× sample buffer, and boiled at 95 °C for 5 min. The polymerized fraction was collected directly from the culture dish following 10 min of incubation at room temperature with 1× sample buffer.
For the concentration-dependent assay, the cells were harvested by scraping and centrifuged at 1000 g for 5 min, and then lysed with the hypotonic cell lysis buffer for 10 min at room temperature. Tubulin fractions were obtained by centrifugation at 12,000 × g for 10 min.
Equal volumes of the samples were subjected to 10% SDS-PAGE followed by western blotting. Detection of β-tubulin content was accomplished with an anti-β-tubulin mouse monoclonal antibody (sc-101527, Santa Cruz Biotechnology).

HT-29 cells = test: MTT cytotoxicity assay, HT-29; settings: for IC50: Homo sapiens
Procedure: as §1, §2
HT-29 h colon, colorectal Radostina adenocarcinoma Alexandrova 3.1 g/L D-Glucose […]
colon, colon Kindly provided U/mL streptomycin

MDA-MB-231 cells = test: MTT cytotoxicity assay, MDA-MB-231
Procedure: as §1, §2, §3, §4, §5, §6, §7

EA.hy926 cells [1] = test: Clonogenic survival assay; settings: 72 h treatment + 6 days recovery
Procedure: EA.hy926 cells were seeded at 300 cells/well on a 6-well plate and incubated for 24 h. The cells were treated with different concentrations of test compounds for 72 h. After six additional days of growth in a fresh medium to form visible colonies, cells were washed with phosphate-buffered saline (PBS, pH 7.4) and stained with crystal violet (0.5%, w/v) in 6% glutaraldehyde. After 30 min of incubation, the plates were washed with tap water, dried, photographed, and analyzed using ImageJ [79]. Raw data were normalized to the corresponding DMSO control for each independent experiment. After normalization, statistically significant differences for colony-forming efficiency (CFE) values versus […] were calculated.

EA.hy926 cells [2] = test: Matrigel tube disruption assay; settings: EA.hy926 on Matrigel, 24 h of treatment
Procedure: The tube formation assay was performed in 96-well plates coated with 40 µL BD Matrigel™ (basement membrane matrix), following the manufacturer’s instruction (BD Biosciences). A total of 2 × 10^4 EA.hy926 cells was re-suspended in growth medium and added to each well in a final volume of 100 µL. Tube formation was visualized directly using a light microscope. Images were captured using a phase-contrast microscope and quantitation was performed using the WimTube application of the Wimasis online image analysis platform (https://www.wimasis.com/en/products/13/WimTube; accessed on 1 June 2021).

Row | Compound | Cytostatic activity (% viable cells) (MCF-7 cells; MCF-7 cells, 72 h, MTT, in the concentration range studied) [%] | active forms of effector caspase 3 (caspase 3, 8 and 9; CA-4 IC50 and 26Z IC20) | soluble vs. polymerized tubulin ratio (α,β-tubulin) | IC50 (HT-29 cells; HT-29 cells, 72 h, MTT, read-out: IC50) [nM] | Cytostatic activity (% viable cells) (MDA-MB-231 cells; MDA-MB-231 cells, 72 h, MTT) [%] | inhibition at 0.001 µM (EA.hy926 cells [1]; Homo sapiens, EA.hy 926, EA.hy926, 1 nM, read-out: inhibition of endothelial cell colony formation) [%] | decrease of branching points (EA.hy926 cells [2]; equitoxic IC50 concentration) [%] | reduction of loop numbers (EA.hy926 cells [2]; equitoxic IC50 concentration) [%] | IC50 (MCF-7 cells; Homo sapiens, MCF7, 72 h) [nM] | activation of caspases 8 and 9 (caspase 3, 8 and 9) | active forms of effector caspase 3 (caspase 3, 8 and 9; 26Z at IC50 and IC80) | concentration above which the depolymerizing effect is clearly visible (α,β-tubulin; EA.hy926, 6 h, 0.01–10 μM) | greater cytotoxic effect compared to CA-4 (HT-29 cells; HT-29 cells, 72 h) | IC50 (HT-29 cells; HT-29, 72 h) [nM] | IC50 (MDA-MB-231 cells; Homo sapiens, MDA-MB-231, 72 h) [nM] | decrease in colony number (EA.hy926 cells [1]; EA.hy926, 250 nM) [%] | reduction in colony formation (EA.hy926 cells [1]; EA.hy926, 2.5, 10 and 25 µM) | reduction in cumulative tube length (EA.hy926 cells [2]; IC50 concentration, compared with time 0)
1 | COc1ccc(/C=C\c2cc(OC)c(OC)c(OC)c2)cc1O [CA-4, Combretastatin A-4] | 40 | to a lesser extent | 3.3 ± 0.61 | 2160 ± 230 | 55 | 80 | 50 | 56 ± 3 |  |  |  |  |  |  |  |  |  | 
2 | COc1cc(/C=C\c2ccc3c(c2)sc(=O)n3C)cc(OC)c1OC [Compound 26Z, (Z)-3-methyl-6-(3,4,5-trimethoxystyryl)-2(3H)-benzothiazolone] |  | to a lesser extent | 2.74 ± 0.43 |  |  |  | 63 |  | 2420 ± 480 | activated | detected | higher than 0.05 μM | more than 250 times | 8 ± 1 | 1350 ± 420 | 90 | about 100% | ~ 70%
